Measurements from PubChem BioAssay (NCI).
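How tested: cells in 96-well plates exposed to compound for 48 hours at five concentrations. TGI is the concentration that stops growth completely.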

Experiments:
Assay in all cases: growth of human tumour cells (NCI), 48 h
A549 NSCLC = tested on: A549 NSCLC
ACHN renal = tested on: ACHN renal
HL-60(TB) leukemia = tested on: HL-60(TB) leukemia
HOP-62 NSCLC = tested on: HOP-62 NSCLC
HS 578T breast = tested on: HS 578T breast
IGROV1 ovarian = tested on: IGROV1 ovarian
K-562 leukemia = tested on: K-562 leukemia
MDA-N = tested on: MDA-N
NCI-H226 lung = tested on: NCI-H226 lung
NCI-H23 lung = tested on: NCI-H23 lung
NCI-H522 lung = tested on: NCI-H522 lung
PC-3 prostate = tested on: PC-3 prostate
SF-539 CNS = tested on: SF-539 CNS
SK-MEL-2 melanoma = tested on: SK-MEL-2 melanoma
SK-MEL-28 melanoma = tested on: SK-MEL-28 melanoma
SNB-75 CNS = tested on: SNB-75 CNS
SW-620 colon = tested on: SW-620 colon
T-47D breast = tested on: T-47D breast
TK-10 renal = tested on: TK-10 renal
UACC-62 melanoma = tested on: UACC-62 melanoma

Compound	TGI (A549 NSCLC) [µM]	TGI (ACHN renal) [µM]	TGI (HL-60(TB) leukemia) [µM]	TGI (HOP-62 NSCLC) [µM]	TGI (HS 578T breast) [µM]	TGI (IGROV1 ovarian) [µM]	TGI (K-562 leukemia) [µM]	TGI (MDA-N) [µM]	TGI (NCI-H226 lung) [µM]	TGI (NCI-H23 lung) [µM]	TGI (NCI-H522 lung) [µM]	TGI (PC-3 prostate) [µM]	TGI (SF-539 CNS) [µM]	TGI (SK-MEL-2 melanoma) [µM]	TGI (SK-MEL-28 melanoma) [µM]	TGI (SNB-75 CNS) [µM]	TGI (SW-620 colon) [µM]	TGI (T-47D breast) [µM]	TGI (TK-10 renal) [µM]	TGI (UACC-62 melanoma) [µM]
CCOC(=O)C(NC(=O)c1cccc(Cl)c1)(N1CCN(c2cc3c(cc2F)c(=O)c(C(=O)O)cn3CC)CC1)C(F)(F)F (stereo not given)	64.2	32.9	20.1	36.6	44.8	47.6	52	28.2	40.1	42	16.4	35.1	30.2	31.1	33.9	61.2	29.4	51.4	56.6	32.4
O=C1CSC(c2cccc(Oc3ccccc3)c2)N1c1cc(Cl)ccc1Cl (stereo not given)	> 100	49.1	> 100	47.1	77.7		50.1	35.7	46.7	98.2	41.1	52.5	35.6	36.3	> 100	62.6	70.5	89.6	55.1	31.5
O=C(NCc1ccc(Cl)c(Cl)c1)c1nc2ccccc2nc1NCc1ccc(Cl)c(Cl)c1	> 100	> 100	> 100	> 100	> 100	> 100	> 100	> 100	> 100	> 100	> 100	> 100	> 100	> 100	> 100	> 100	> 100	> 100	> 100	> 100
CNC(=O)N(C)C(=O)c1ccccc1C(=O)N(C)C(=O)NC	> 10	> 10	> 10	> 10	> 10	> 10	> 10	> 10	> 10	> 10	> 10	> 10	> 10	> 10	> 10	> 10	> 10	> 10	> 10	> 10
COc1cc(CC2C(=O)OCC2Cc2ccc(OC)c(OC)c2)ccc1O (stereo not given)	> 100	> 100	> 100	> 100	> 100	> 100	> 100	> 100	> 100	> 100	> 100	> 100	> 100	> 100	> 100	> 100	> 100	> 100	> 100	> 100
O=P1(C(O)c2ccccc2)N(Cc2ccccc2)[C@@H]2CCCC[C@H]2N1Cc1ccccc1 (stereo not given in full)	> 100	> 100	47.2	> 100	45.5	49.9	> 100	> 100	64.7	> 100	63.6	89.1	45.6	73.7	> 100	55.1	> 100	85.6	> 100	> 100
CCCCCNC(=O)OC1CCn2c1nc1c2C(=O)C(C)=C(N2CC2)C1=O (stereo not given)	2.57	2.81	> 100		6.24	3.43	7.75	2.88	4.26	6.2	3.4	2.39	5.33	3.7	2.78	2.69		7.16	12.5	3.54
COc1c(-c2nc3nc(N4CCN(C)CC4)ccc3[nH]2)cc(OC)c2c1nc(CCl)n2C	79.6	26.9	53.5	49.1	> 100	36.8	> 100	> 100	66.1	47	25.5	28.2	20.7	29.3	71.7	29.8	64.3	38.9		23.1
Cc1c(Cl)cc(C(C)(C)C)c(O)c1Cc1c(C)c(Cl)cc(C(C)(C)C)c1O	5.88	7.64	3.45	9.87	3.61	5.53	5.1	8.71	6.03	5.13	1.18	9.93	4.24	3.9	12.3	5.78	6.45	13.1	10	7
CCOC(=O)c1ccc(-c2cccs2)[nH]1	> 100	> 100	> 100	> 100	> 100	> 100	> 100	> 100	> 100	> 100	> 100	> 100	> 100	> 100	> 100	> 100	> 100	> 92.1	> 100	> 100
O=C1Cc2c(-c3ccccc3)cc(-c3ccc(Cl)cc3)nc2-c2ccccc2N1	35.3	7.36	> 100	12.9	11.8	35.9	> 100	35.4	22	17.8	12.8	> 57.7	19.8	49.4	> 31.8	8.77	> 47.6	17.8	14.3	> 31
CCOC(=O)C1(NC(=O)OC(C)(C)C)CCc2[nH]oc(=O)c2C1 (stereo not given)	> 100	> 100	> 100	> 100	> 100	> 100	> 100	> 100	> 100	> 100	> 100	> 100	> 100	> 100	> 100	> 100	> 100	> 100	> 100	> 100
CN1Cc2c(ccc3c2OCO3)[C@@H]2[C@H](O)Cc3cc4c(cc3[C@@H]21)OCO4	> 100	> 100	4.36	28.1	> 100	> 100	> 100	1.46	9.94	12.8	14.6	> 100	4.6	> 27.1	> 100	7.64	> 100	> 100	> 100	> 24
CCCCCCCCCCCCCCCC(=O)OCC(COP(=O)(O)OCCNC(=O)CCSSc1ccccn1)OC(=O)CCCCCCCCCCCCCCC (stereo not given)	> 100	> 100	> 100	> 100	> 100	> 100	> 100	> 100	> 100	> 100	> 100	> 100	> 100	> 100	> 100	> 100	> 100	> 100		> 100
CC(=O)OC/C=C/Cn1nc(Br)c(=O)[nH]c1=O	> 100	> 100	> 100	> 100	> 100	> 100	> 100	> 100	> 100	> 100	> 100	> 100	> 100	> 100	> 100	> 100	> 100	> 100	> 100	> 100
COc1ccc(N=C(SSC(=Nc2ccc(OC)cc2)c2ccc([N+](=O)[O-])o2)c2ccc([N+](=O)[O-])o2)cc1	> 100	4.1	7.07	6.41	5.43	4.2	> 25.3	12.7	37.3	3.2	0.953	2.94	> 21.9	4.73	> 19.7	2.9		4.2	7.55	3.16
CCOC(=O)c1c(SCCN(CC)CC)n(-c2ccccc2)c(=S)n(-c2ccccc2)c1=O	9.42	3.2	3.61	32.6	28	13.2	4.32	7	41.1	44.6	3.67	4.1	9.11	30.1	11.9	23.4	> 24.2	15.3	3.39	9.1
CO[C@@H](c1ccccc1)[C@H](O)[C@@](O)(c1ccccc1)P(=O)(OC)OC	> 100	> 100	> 100		> 100	> 100	> 100	> 100	> 100	> 100	> 100	> 100	> 100	> 100	> 100	> 100	> 100	> 100	> 100	> 100
N=c1sc(N2CCOCC2)nn1CC(=O)c1ccccc1	> 100	> 100	> 100	> 100	> 100	> 100	> 100	> 100	> 100	> 100	> 100	> 100		> 100	> 100	> 100	> 100	> 100	> 100	> 100
Nc1nc2c(ccc3ccccc32)[nH]1	> 10	> 10	> 10	> 10	> 10	> 10	> 10	> 10	> 10	> 10	> 10	> 10	> 10	> 10	> 10	> 10	> 10	> 10	> 10	> 10
O=C(CCc1ccccc1)NCCc1ccc(O)c(O)c1	> 100	> 100	14.3	97.3	> 100	> 100	22.4	28.5	> 100	> 100	44	> 61.2	> 87.5	49.5	> 100	> 100	> 100	> 100	> 100	> 100
Nc1c(/C=C/c2cc3cc(C4=NCCN4)ccc3o2)[nH]c2cc(C3=NCCN3)ccc12	> 100	> 100	> 100	96	> 100	> 100	> 100	> 100	> 100	> 100	> 100	> 100	> 100	> 100	97.4	> 100	> 100	> 100	67	> 100
COc1ccc(/[N+]([O-])=C/c2ccccc2OC(=S)S)cc1	> 100	> 100	70.8		> 100	> 100	> 100	63.4	> 100	85.5	74	> 100	52	65.7	> 100	> 100	> 100	> 100	> 100	> 100
N#Cc1c(N)n(-c2nc3ccccc3s2)c(=O)c2cc([N+](=O)[O-])ccc12	> 56.8	> 72.8	24.9	22	36.9		38.6	> 82.7	52.6	36.5	25.6	> 52.1	28	40.3	> 100	> 48.3	> 100	> 100	> 100	66.8
